Test results reported in publication PMC9569971, “New Oxazolo[5,4-d]pyrimidines as Potential Anticancer Agents: Their Design, Synthesis, and In Vitro Biological Activity Research” (International Journal of Molecular Sciences, 2022).
Entries after “also recorded” stand apart in the source; their conditions may differ. Where two headings read alike, the source gives them in different places. One block for each molecule: values may come before it.

Tests used:
HT29 [1] = conditions: ref 67; cited from earlier work
MCF7 = conditions: cited from earlier work
A549 = conditions: cited from earlier work
HT29 [2] = test system: HT29; parameters: method as in PMID 32759841; conditions: estimated based on data taken from reference; cited from earlier work
[3] = test system: HT29 primary colon adenocarcinoma cells; assay: Detection of apoptosis (Annexin V FITC / propidium iodide); format: cell-based, human; parameters: unit not given here; conditions: 24 h
Experimental: (§1) All cell lines were grown in 5% CO2 at 95% humidity and 37 °C, with both morphology and confluence assessed twice per week. When the confluence was greater than 70%, adherent cell lines were detached from the bottle surface with a TrypLE solution and then used in assays or reduced. The cells were collected into centrifuge tubes and centrifuged at 1000× g for 5 min at room temperature. The supernatant was removed to dry. The cell pellets were then resuspended in an appropriate medium. The cells were counted using a Bürker chamber and resuspended in 96-well plates to a cell density of 10,000 cells per well for MTT assay. For the rhodamine accumulation test and the detection of apoptosis assay, cells were seeded at a density of 30,000 per well. In the migration assay, cells were seeded at a density of 20,000 per well, and monolayer formation was awaited.
HT29 primary colon adenocarcinoma cells were grown in 96-well plates for 24 h. The 5 selected derivatives were added at concentrations of 1, 2, 5, and 10 µM, and then incubated for 24 h. The mixture of Annexin V conjugated with fluorescein and propidium iodide in PBS with Mg^2+ and Ca^2+ ions (Thermo Fisher Scientific, Waltham, MA, USA) was then applied. The incubation lasted 20 min at 37 °C. Pictures were taken using a fluorescence microscope. Thirteen images were taken from each well using an EVOS FL fluorescence microscope, with three replications for each compound. The open ImageJ space was used to analyze the number of cells. The Thermo Fisher Dead Cell Apoptosis Kit with Annexin V FITC and Propidium Iodide (PI) detects phosphatidylserine extrusion in apoptotic cells using Annexin V conjugated with a green fluorescent FITC dye and dead cells stained by PI with red fluorescence.

HT29 cells = assay: Migration (scratch) assay; format: cell-based, human; conditions: control T 155558.2, control T0 544366.45
Experimental: The scratch test was performed to verify that the tested compound 3g could inhibit the formation of metastases by the HT29 cell line. The seeded HT29 cells were incubated until they formed a monolayer over the entire surface of the well. Then, a scratch test was performed by making a scratch in the monolayer and measuring its width—that is, To, amounting to 544,366.45 μm^2. Freshly prepared compounds were added to the HT29 cells at concentrations of 10, 25, 50, and 100 μM. Breeding plates were incubated for 24 h. The next day, scratch width was measured again using the ImageJ open-source platform. […] The lowest cellular overgrowth of HT29 culture occurred at the concentration of 100 μM for the compound. Compound 3g inhibited the migration of HT29 cells more strongly than the reference drugs, showing that it has the potential to inhibit metastasis. The width of the scratch after 24 h when no compound was applied to the cells was used as a control (T = 155,558.2 μm^2).
as §1
After seeding, HT29 cells were incubated until they formed a monolayer over the entire surface of the well. A scratch was made on the surface overgrown with cells, and then photomicrographs of the scratch were taken using the EVOS FL microscope. The freshly prepared compound 3g and the reference drugs were added at concentrations of 10, 25, 50, and 100 µM. Then, they were incubated for 24 h, and micrographs were performed at that time using the EVOS FL microscope. The scratch width was measured using the ImageJ open-source platform. The measurement of scratch width was also performed after 24 h without adding compounds.

[4] = test system: normal human dermal fibroblasts (NHDF); assay: MTT viability assay, NHDF; format: cell-based; conditions: tested 1–500 µM
Experimental: as §1, with “When” for “All cell lines were grown in 5% CO2 at 95% humidity and 37 °C, with both morphology and confluence assessed twice per week. When”
(§2) In this study, normal human dermal fibroblasts (NHDFs), breast cancer cells (MCF7), human lung adenocarcinoma cells (A549), murine fibroblasts (L929), colon adenocarcinoma cells (HT29), and colorectal adenocarcinoma cells (LoVo) were used. All cell lines were cultured in the recommended media. […] The human lung adenocarcinoma cell line A549 and breast cancer cell line MCF-7 were obtained from the ECACC. These cell lines were cultured in Eagle’s minimal essential medium (MEM). Murine fibroblast L929 (Sigma-Aldrich, Merck Group, Headquarters, Darmstadt, Germany; the European Collection of Authenticated Cell Cultures—ECACC) cells were grown in DMEM. […] All media were supplemented with 10% FBS and 100 µg/mL of penicillin–streptomycin.
(§3) All compounds were dissolved in DMSO and the reference drugs were dissolved in physiological saline to concentrations of 10 mM. Concentrations from 1 to 500 μM in the media recommended for the cell lines were prepared for the tests.
(§4) All of the synthesized derivatives were evaluated via the MTT assay. All cell lines were seeded into 96-well plates at a density of 10,000 cells per well. To allow the cells to adhere to the surface of the plates, they were incubated overnight before the application of the test compounds. […] The tests were performed for concentrations of 1, 5, 10, 25, 50, 100, 250, and 500 μM. The solutions of the test compounds were removed from the culture on the 96-well plates. […] The supernatant was then removed. The violet crystal was dissolved in isopropanol for 30 min by shaking. Absorbance was measured at 570 nm.
(§5) Biological assays were performed in three independent replicates, and each replicate used four samples. Three repetitions were made for the ELISA determinations. For the assessment of cytotoxicity, mathematical models were developed using the GraphPad PRISM software, based on which CC50 was determined. The values of CC50 were estimated based on nonlinear regression using the dependence of the biological effect on the molar concentrations of the compounds (four-parameter logistic model with Hill slope).

[5] = test system: primary colon adenocarcinoma (HT29); assay: MTT viability assay, HT29; format: cell-based, human; conditions: for SI (selectivity index): CC50 NHDF / CC50 HT29; for CC50: Homo sapiens, HT-29, HT29, MTT; for CC50 / CC50 ± SD: tested 1–500 µM; for CC50 ± SD: HT29, MTT
Experimental: as §1, with “When” for “All cell lines were grown in 5% CO2 at 95% humidity and 37 °C, with both morphology and confluence assessed twice per week. When”
as §2, §3, §4, §5

[6] = test system: lung adenocarcinoma (A549); assay: MTT viability assay, A549; format: cell-based, human
Experimental: as §1, with “When” for “All cell lines were grown in 5% CO2 at 95% humidity and 37 °C, with both morphology and confluence assessed twice per week. When”
as §2, §3, §4, §5

[7] = test system: breast adenocarcinoma (MCF7); assay: MTT viability assay, MCF7; format: cell-based, human; conditions: for SI (selectivity index): CC50 NHDF / CC50 MCF7; for CC50: Homo sapiens
Experimental: as §1, with “When” for “All cell lines were grown in 5% CO2 at 95% humidity and 37 °C, with both morphology and confluence assessed twice per week. When”
as §2, §3, §4, §5

[8] = MTT viability assay, L929; format: cell-based, murine; conditions: mouse, L929 fibroblasts, tested 1–500 µM
Experimental: as §1, with “When” for “All cell lines were grown in 5% CO2 at 95% humidity and 37 °C, with both morphology and confluence assessed twice per week. When”
as §2, §3, §4, §5

[9] = MTT viability assay, NHDF; format: cell-based, human; conditions: human, normal human dermal fibroblasts (NHDF), tested 1–500 µM
Experimental: as §1, with “When” for “All cell lines were grown in 5% CO2 at 95% humidity and 37 °C, with both morphology and confluence assessed twice per week. When”
as §2, §3, §4, §5

[10] = test system: metastatic colon adenocarcinoma (LoVo); assay: MTT viability assay, LoVo; format: cell-based, human
Experimental: as §1, with “When” for “All cell lines were grown in 5% CO2 at 95% humidity and 37 °C, with both morphology and confluence assessed twice per week. When”
as §2, §3, §4, §5

[11] = test system: murine fibroblasts (L929); assay: MTT viability assay, L929; format: cell-based; conditions: tested 1–500 µM
Experimental: as §1, with “When” for “All cell lines were grown in 5% CO2 at 95% humidity and 37 °C, with both morphology and confluence assessed twice per week. When”
as §2, §3, §4, §5

SMILES: COc1cc2nccc(Oc3ccc(NC(=O)C4(C(=O)Nc5ccc(F)cc5)CC4)cc3)c2cc1OC [Cabozantinib]
IC50 (HT29 [1]): 11.5 ± 1.1 µM
IC50 (MCF7): 14.3 ± 0.87 µM
IC50 (A549; ref 67, read-out: IC50 (converted)): 9.52 ± 0.91 µM
IC50 (A549; ref 68, read-out: IC50 (converted)): 15.2 µM

SMILES: N.N.[Cl][Pt][Cl] [Cisplatin, reference compound]
CC50 (HT29 [2]): 16.9 ± 1.94 µM
apoptosis mean ([3]; 1 μM): 4.45
late apoptosis mean ([3]; 1 μM): 26.25
necrosis mean ([3]; 1 μM): 7.81
percent live (viable) cells ([3]; 1 μM): 50.30
apoptosis mean ([3]; 2 μM): 7.18
late apoptosis mean ([3]; 2 μM): 24.44
necrosis mean ([3]; 2 μM): 4.42
percent live (viable) cells ([3]; 2 μM): 52.47
apoptosis mean ([3]; 5 μM): 6.28
late apoptosis mean ([3]; 5 μM): 29.59
necrosis mean ([3]; 5 μM): 3.95
percent live (viable) cells ([3]; 5 μM): 59.69
apoptosis mean ([3]; 10 μM): 2.34
late apoptosis mean ([3]; 10 μM): 16.55
necrosis mean ([3]; 10 μM): 32.35
percent live (viable) cells ([3]; 10 μM): 48.76
scratch width after 24 h, mean (HT29 cells; 10 μM): 171562.8 μm^2
scratch width after 24 h, mean (HT29 cells; 25 μM): 209621 μm^2
scratch width after 24 h, mean (HT29 cells; 50 μM): 216006.4 μm^2
scratch width after 24 h, mean (HT29 cells; 100 μM): 253653.8 μm^2

melting point: 253 to 254 °C (dec.)
SMILES: CCNc1ncnc2oc(-c3c(C)noc3N)nc12 [Compound 3b, 2-(5-Amino-3-methylisoxazol-4-yl)-7-N-ethylaminooxazolo[5,4-d]pyrimidine]
CC50 ± SD [4]: Non-toxic
SI (selectivity index) [5]: >>1
CC50 [5]: 194 ± 15.4 µM
CC50 ± SD ([6]; A549, MTT, tested 1–500 µM): no activity
SI (selectivity index) [7]: >>1
CC50 ([7]; MCF7, MTT, tested 1–500 µM): 193 ± 16.9 µM
CC50 [8]: 235 ± 11.5 µM

melting point: 239 to 240 °C (dec.)
SMILES: CCCCNc1ncnc2oc(-c3c(C)noc3N)nc12 [Compound 3d, 2-(5-Amino-3-methylisoxazol-4-yl)-7-N-butylaminooxazolo[5,4-d]pyrimidine]
CC50 [9]: 126 ± 9.87 µM
SI (selectivity index) [5]: 0.820
CC50 [5]: 154 ± 13.4 µM
SI (selectivity index) ([6]; CC50 NHDF / CC50 A549): 0.705
CC50 ([6]; Homo sapiens, A549, MTT, tested 1–500 µM): 179 ± 14.9 µM
SI (selectivity index) ([10]; CC50 NHDF / CC50 LoVo): 0.558
CC50 ([10]; Homo sapiens, LoVo, MTT, tested 1–500 µM): 226 ± 8.28 µM
SI (selectivity index) [7]: 0.944
CC50 ([7]; MCF7, MTT, tested 1–500 µM): 134 ± 14 µM
CC50 ± SD [11]: no toxic activity; also recorded: Non-toxic

melting point: 213 to 214 °C (dec.)
SMILES: Cc1noc(N)c1-c1nc2c(NCCO)ncnc2o1 [Compound 3h, 2-(5-Amino-3-methylisoxazol-4-yl)-7-N-(2-hydroxyethyl)aminooxazolo[5,4-d]pyrimidine]
CC50 ± SD [4]: Non-toxic
CC50 ± SD [5]: lack cytotoxic activity
CC50 ± SD ([7]; MCF7, MTT, tested 1–500 µM): no cytotoxic activity
CC50 [8]: 146 ± 11.1 µM

melting point: 225 to 226 °C (dec.)
SMILES: Cc1noc(N)c1-c1nc2c(NCCCO)ncnc2o1 [Compound 3i, 2-(5-Amino-3-methylisoxazol-4-yl)-7-N-(3-hydroxypropyl)aminooxazolo[5,4-d]pyrimidine]
CC50 ± SD [4]: Non-toxic
CC50 ± SD [5]: lack cytotoxic activity
SI (selectivity index) [7]: >>1
CC50 ([7]; MCF7, MTT, tested 1–500 µM): 251 ± 22.1 µM
CC50 [8]: 171 ± 22.8 µM
